Experimental data as given in patent US20220144747A1, “SHIKIMATE ANALOGUES AND METHODS OF USE” (The Board of Regents of the University of Oklahoma, priority 2016, published 2022).
Converted amounts (≈) assume the structure as drawn.

Assays:
[1] = test system: EpiDerm™ reconstructed human epidermis tissues; test: Time course toxicity in EpiDerm tissues (MTT assay); assay type: cell-based; conditions: after 24 hours
Method: All substances are safe for greater than 24 hours, at even a very high dose of 500 μM. […] Viability of EpiDerm™ tissues was determined by MTT assay.

IL-1 alpha = IL-1 alpha cytokine response in media of EpiDerm tissues (ELISA); assay type: cell-based, human; conditions: media of EpiDerm tissues after exposure
Method: IL-1 alpha secretion was not elevated in response to the test compounds, indicating a low potential for allergic reactions. […] Cytokine levels were determined by ELISA.

Tolypocladium sp. T1 = test: Antifungal test against T1 in PDB / PDB-N media (fresh or 5-day-old T1 broth); assay type: cell-based; conditions: for effect of supplemental NaNO3 in test medium on antifungal efficacy: against T1, PDB-N = PDB plus 2 g/L NaNO3; for sensitivity of T1 to antifungal activity, normal versus NaNO3-supplemented medium: freshly prepared media, 3-day test window; for resistance of T1 culture: test medium prepared from 5-day-old T1 culture broth, non-NaNO3-supplemented
Excerpt: (§1) Media types: PDB (potato dextrose broth); PDB-N(PDB plus 2 g/L NaNO3); PDB 8:2 (mixture of centrifuged broth of T1 grown in PDB for 5 days with fresh PDB at the ratio of 8:2); PDB-N 8:2 (mixture of centrifuged broth of T1 grown in PDB-N for 5 days with fresh PDB at the ratio of 8:2).
(§2) This prompted us to ask the question what effect the addition of the shikimate analogue moiety had on the bioactivities of compounds 8, 9, 12, and the other nucleophilic substances that we tested. A panel of fungi including four Tolypocladium spp. (T1-T4), four Penicillium spp. (P1-P4) and Aspergillus niger (A1) were selected for assessment. […] To test the capacity of 11 to block the toxicity of 13 in real time, fungal cultures were preincubated with 11 and then treated with varying doses of 13. This regimen of preadministering 11 afforded up to an 8-fold decrease in the MIC of 13 (FIG. 15A). […] We had also noted that the addition of NaNO3 to the culture medium thoroughly abolished the formation of 10 and 11. […] Whereas previously reported resistance mechanisms involving antibiotic modification depended on the enzymatic modification of target substrates, fungal metabolites 10 and 11 functioned as electrophilic warheads that were reactive to a wide variety of natural and synthetic organic substances. The actions of these metabolites serve to limit the deleterious effects of antibiotics/toxins against their microbial targets.
The effects of compounds on fungal growth of fungi were tested using the method described in the NCCLS M38-A guidelines with following modifications. Fungi were cultured on PDA plates (potato dextrose agar, Becton Dickinson and Company) at 25° C. for 6-10 days. The spores/mycelia were disrupted by mechanical agitation and diluted in RPMI 1640 medium (Sigma Chemical Corporation) buffered to pH 7.0 with MOPS (0.165 M, Sigma). Test compounds were prepared in DMSO or EtOH at stock concentrations of 10 mM before being serially diluted in 50 μL RPMI 1640 plus MOPS medium for testing. Aliquots of spore suspension were added to the medium containing the diluted compounds or vehicle (<1% by vol.). After 72 h of incubation at 25° C., the optical densities of fungi were measured using a microplate reader (Infinite M200, Tecan Group Ltd.). The minimum inhibitory concentration (MIC) for growth was defined as the lowest concentration causing prominent growth reduction (>80%). The RPMI 1640 medium was replaced by PDB medium or PDB-N(PDB with 2 g/L NaNO3) for the indicated antifungal tests.

[2] = Stability / isomerization in solvents; assay type: physicochemical; conditions: for stability in solvents: CH2Cl2, CHCl3, MeOH, and EtOH at room temperature; for stability on prolonged storage: in alcohol over several weeks
Excerpt: The resulting mixture was purified on HPLC yielding 4 and its diastereomer 5. […] The ^1H and ^13C NMR data of 4 and 5 were almost identical (Tables S2 and S3 of the appendix of U.S. Provisional Patent Application 62/295,343). […] Thus, the absolute configuration of C-3′-C-5′ was deduced as 3'S,4'S,5'S, opposite to that of 4.

[3] = Thiol neutralization on pig skin (LCMS); conditions: with spermine in 50% propylene glycol, 2-phenylethanethiol, 10 min
Method: After the Pericosine composition was applied to the thiol on the pig skin and allowed to react for 10 minutes, an eluate from the treated area was analyzed with LCMS. Only a pericosine-thiol conjugate was detected.
Pericosine A, spermine, and the model thiol compound 2-phenylethanethiol were prepared into 100 mM stock solutions in dimethyl sulfoxide (DMSO). 5 uL pericosine A and 5 uL spermine solutions were pre-mixed into 50 uL 50% propylene glycol to form a test composition. A piece of pig skin (1 inch×1 inch) was placed in a 10-cm ID petri dish. 5 uL of the thiol solution was dispensed onto the pig skin sample. The pericosine test composition was applied to the thiol-treated spot on the pig skin sample. The petri dish was covered and gently agitated to cause the thiol sample to mix with the pericosine test composition. After 10 min incubation, the solution on the pig skin was transferred using a pipet into an Eppendorf tube. The treated spot on the pig skin was extracted with 100 uL MeOH and the MeOH solution was combined with the solution in the Eppendorf tube. After mixing and centrifuging, the mixed solution was subjected to LCMS analysis.
As shown in FIG. 21(a), a major pericosine-thiol conjugated product was detected by the LCMS analysis in the solution removed from the pig skin.

[4] = test system: four Tolypocladium spp. (T1-T4), four Penicillium spp. (P1-P4) and Aspergillus niger (A1); test: Antifungal test (MIC) against a panel of test fungi; assay type: cell-based; conditions: against all of the fungal strains of the panel, 72 h, 25° C., MIC = >80% growth reduction, read-out: MIC (growth inhibition)
Method: as §2, with “The actions of these metabolites serve to limit the deleterious effects of antibiotics/toxins against their microbial targets.” left out
(§3) The effects of compounds on fungal growth of fungi were tested using the method described in the NCCLS M38-A guidelines with following modifications. […] After 72 h of incubation at 25° C., the optical densities of fungi were measured using a microplate reader (Infinite M200, Tecan Group Ltd.). […]

[5] = test system: fungi T1, T2, P1, P4, and A1; test: Antifungal test of 13 on fungal cultures preincubated / co-treated with 11; assay type: cell-based, Tolypocladium spp., Penicillium spp., Aspergillus niger
Excerpt: as §1
This prompted us to ask the question what effect the addition of the shikimate analogue moiety had on the bioactivities of compounds 8, 9, 12, and the other nucleophilic substances that we tested. A panel of fungi including four Tolypocladium spp. (T1-T4), four Penicillium spp. (P1-P4) and Aspergillus niger (A1) were selected for assessment. […] To test the capacity of 11 to block the toxicity of 13 in real time, fungal cultures were preincubated with 11 and then treated with varying doses of 13. This regimen of preadministering 11 afforded up to an 8-fold decrease in the MIC of 13 (FIG. 15A). […] We had also noted that the addition of NaNO3 to the culture medium thoroughly abolished the formation of 10 and 11. […]
as §3

Triton X-100
EpiDerm tissue outcome ([1]; 1% control in the test with activating compound and fragrance): epidermal death | EpiDerm tissue outcome ([1]; 1% control, MTT assay): epidermal death | IL-1 alpha secretion (IL-1 alpha): significant response

PF1140 [Compound 8]
effect of supplemental NaNO3 in test medium on antifungal efficacy (Tolypocladium sp. T1): enhanced | sensitivity of T1 to antifungal activity, normal versus NaNO3-supplemented medium (Tolypocladium sp. T1): equally sensitive | resistance of T1 culture (Tolypocladium sp. T1): increasingly resistant

pseudomaximiscin A [Compound 4]
stability in solvents [2]: stable for several days | stability in DMSO-d6 ([2]; dissolved in DMSO-d6): Rapid isomerization | stability on prolonged storage [2]: modest levels of compound rearrangement

COC(=O)C1=C[C@H](O)[C@H](O)[C@H](O)[C@H]1Cl [Compound 11, (+)-pericosine A]
neutralization of thiol on a surface (pig skin) ([3]; listed as Pericosine A): completely neutralize | neutralization of thiol on a surface (pig skin) ([3]; listed as pericosine A): quantitative consumption

Cc1cc(C2CCCCC2)n(O)c(=O)c1 [Compound 13, ciclopirox]
MIC [4]: 1 to 50 µM (≈ 0.207 to 10.4 µg/mL) | effect of supplemental NaNO3 in test medium on antifungal efficacy (Tolypocladium sp. T1): enhanced | sensitivity of T1 to antifungal activity, normal versus NaNO3-supplemented medium (Tolypocladium sp. T1): equally sensitive | resistance of T1 culture (Tolypocladium sp. T1): increasingly resistant | antifungal efficacy of 13 on co-treatment with 11 ([5]; co-treatment by 11 plus 13, fungi T1, T2, P1, P4, A1): reduced | decrease in the MIC of 13 ([5]; fungal cultures preincubated with 11, then treated with varying doses of 13): ≤ 8 fold

pseudomaximiscin B [Compound 5]
stability in solvents [2]: stable for several days | stability on prolonged storage [2]: modest levels of compound rearrangement
